Laboratory results taken from patent US10597388B2, “Pyridazinone herbicides” (FMC CORPORATION, priority 2014, dated 2020).

Tests used:
Assay in all cases: Test E greenhouse herbicide test, pre- and postemergence
Assay type in all cases: in vivo
[1] = tested on: Italian ryegrass (Lolium multiflorum)
Procedure, shortened: (§1)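 Seeds were sown in silt loam and sprayed preemergence with compound in a non-phytotoxic solvent mix containing surfactant; for postemergence, plants at 2 to 18 cm (1- to 4-leaf stage) in peat-based potting medium were sprayed with the same formulation. After 14 to 21 d in a greenhouse, injury was rated visually against controls (0–100).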

[2] = tested on: arrowleaf sida (Sida rhombifolia)
Procedure, shortened: as §1

[3] = tested on: beggarticks (hairy beggarticks, Bidens pilosa)
Procedure, shortened: as §1

corn (Zea mays) = tested on: corn (Zea mays)
Procedure, shortened: as §1

[4] = tested on: crabgrass, large (large crabgrass, Digitaria sanguinalis); settings: Preemergence
Procedure, shortened: as §1

[5] = tested on: field bindweed (Convolvulus arvensis)
Procedure, shortened: as §1

[6] = tested on: foxtail, giant (giant foxtail, Setaria faberii); settings: Preemergence
Procedure, shortened: as §1

[7] = tested on: foxtail, green (green foxtail, Setaria viridis); settings: Preemergence
Procedure, shortened: as §1

[8] = tested on: horseweed (Conyza canadensis)
Procedure, shortened: as §1

[9] = tested on: lambsquarters (Chenopodium album); settings: Preemergence
Procedure, shortened: as §1

[10] = tested on: momingglory (Ipomoea coccinea); settings: Preemergence
Procedure, shortened: as §1

[11] = tested on: nightshade (eastern black nightshade, Solanum ptycanthum); settings: Preemergence
Procedure, shortened: as §1

[12] = tested on: panicum, fall (fall panicum, Panicum dichotomiflorum)
Procedure, shortened: as §1

[13] = tested on: ragweed (common ragweed, Ambrosia elatior)
Procedure, shortened: as §1

[14] = tested on: sandbur (southem sandbur, Cenchrus echinatus)
Procedure, shortened: as §1

[15] = tested on: velvetleaf (Abutilon theophrasti); settings: Preemergence
Procedure, shortened: as §1

[16] = 62 g ai/ha, Postemergence, scale 0 to 100 (0 no effect, 100 complete control)
[17] = 62 g ai/ha, Preemergence, scale 0 to 100 (0 no effect, 100 complete control)
[18] = 125 g ai/ha, Postemergence, scale 0 to 100 (0 no effect, 100 complete control)
[19] = 125 g ai/ha, Preemergence, scale 0 to 100 (0 no effect, 100 complete control)
[20] = 250 g ai/ha, Postemergence, scale 0 to 100 (0 no effect, 100 complete control)
[21] = Postemergence, 31 g ai/ha, visual, scale 0 no effect to 100 complete control
[22] = Preemergence, 31 g ai/ha, scale 0 to 100, 0 no effect, 100 complete control
[23] = Preemergence, 250 g ai/ha, visual, scale 0 no effect to 100 complete control
[24] = 62 g ai/ha, scale 0 to 100 (0 no effect, 100 complete control)
[25] = 125 g ai/ha, scale 0 to 100 (0 no effect, 100 complete control)
[26] = 31 g ai/ha, scale 0 to 100, 0 no effect, 100 complete control
[27] = 250 g ai/ha, visual, scale 0 no effect to 100 complete control

## Cc1ccc2sc(Br)c(-c3c(O)c(C)nn(C)c3=O)c2c1 [Compound 79]
[1]; [16]
  Plant response rating, Ryegrass, Italian: 40
[1]; [17]
  Plant response rating, Ryegrass, Italian: 80
[1]; [18]
  Plant response rating, Ryegrass, Italian: 70
[1]; [19]
  Plant response rating, Ryegrass, Italian: 100
[1]; [20]
  Plant response rating, Ryegrass, Italian: 80
[1]; [21]
  Plant response rating, Ryegrass, Italian: 30
[1]; [22]
  Plant response rating, Ryegrass, Italian: 75
[1]; [23]
  Plant response rating, Ryegrass, Italian: 100
[2]; [16]
  Plant response rating, Arrowleaf Sida: 50
[2]; [17]
  Plant response rating, Arrowleaf Sida: 80
[2]; [18]
  Plant response rating, Arrowleaf Sida: 60
[2]; [19]
  Plant response rating, Arrowleaf Sida: 75
[2]; [20]
  Plant response rating, Arrowleaf Sida: 70
[2]; [21]
  Plant response rating, Arrowleaf Sida: 50
[2]; [22]
  Plant response rating, Arrowleaf Sida: 75
[2]; [23]
  Plant response rating, Arrowleaf Sida: 75
[3]; [16]
  Plant response rating, Beggarticks: 100
[3]; [17]
  Plant response rating, Beggarticks: 100
[3]; [18]
  Plant response rating, Beggarticks: 100
[3]; [19]
  Plant response rating, Beggarticks: 100
[3]; [20]
  Plant response rating, Beggarticks: 100
[3]; [21]
  Plant response rating, Beggarticks: 100
[3]; [22]
  Plant response rating, Beggarticks: 100
[3]; [23]
  Plant response rating, Beggarticks: 100
Corn (Zea mays); [16]
  Plant response rating, Corn: 0
Corn (Zea mays); [17]
  Plant response rating, Corn: 0
Corn (Zea mays); [18]
  Plant response rating, Corn: 0
Corn (Zea mays); [19]
  Plant response rating, Corn: 0
Corn (Zea mays); [20]
  Plant response rating, Corn: 0
Corn (Zea mays); [21]
  Plant response rating, Corn: 0
Corn (Zea mays); [22]
  Plant response rating, Corn: 0
Corn (Zea mays); [23]
  Plant response rating, Corn: 20
[4]; [24]
  Plant response rating, Crabgrass, Large: 0
[4]; [25]
  Plant response rating, Crabgrass, Large: 20
[4]; [26]
  Plant response rating, Crabgrass, Large: 0
[4]; [27]
  Plant response rating, Crabgrass, Large: 30
[5]; [16]
  Plant response rating, Field Bindweed: 95
[5]; [17]
  Plant response rating, Field Bindweed: 90
[5]; [18]
  Plant response rating, Field Bindweed: 95
[5]; [19]
  Plant response rating, Field Bindweed: 100
[5]; [20]
  Plant response rating, Field Bindweed: 95
[5]; [21]
  Plant response rating, Field Bindweed: 80
[5]; [22]
  Plant response rating, Field Bindweed: 60
[5]; [23]
  Plant response rating, Field Bindweed: 100
[6]; [24]
  Plant response rating, Foxtail, Giant: 70
[6]; [25]
  Plant response rating, Foxtail, Giant: 85
[6]; [26]
  Plant response rating, Foxtail, Giant: 60
[6]; [27]
  Plant response rating, Foxtail, Giant: 90
[7]; [24]
  Plant response rating, Foxtail, Green: 70
[7]; [25]
  Plant response rating, Foxtail, Green: 80
[7]; [26]
  Plant response rating, Foxtail, Green: 55
[7]; [27]
  Plant response rating, Foxtail, Green: 90
[8]; [16]
  Plant response rating, Horseweed: 95
[8]; [17]
  Plant response rating, Horseweed: 100
[8]; [18]
  Plant response rating, Horseweed: 95
[8]; [19]
  Plant response rating, Horseweed: 100
[8]; [20]
  Plant response rating, Horseweed: 90
[8]; [21]
  Plant response rating, Horseweed: 90
[8]; [22]
  Plant response rating, Horseweed: 100
[8]; [23]
  Plant response rating, Horseweed: 100
[9]; [24]
  Plant response rating, Lambsquarters: 100
[9]; [25]
  Plant response rating, Lambsquarters: 100
[9]; [26]
  Plant response rating, Lambsquarters: 100
[9]; [27]
  Plant response rating, Lambsquarters: 100
[10]; [24]
  Plant response rating, Morningglory: 85
[10]; [25]
  Plant response rating, Morningglory: 90
[10]; [26]
  Plant response rating, Morningglory: 60
[10]; [27]
  Plant response rating, Morningglory: 100
[11]; [24]
  Plant response rating, Nightshade: 100
[11]; [25]
  Plant response rating, Nightshade: 100
[11]; [26]
  Plant response rating, Nightshade: 80
[11]; [27]
  Plant response rating, Nightshade: 100
[12]; [16]
  Plant response rating, Panicum, Fall: 60
[12]; [17]
  Plant response rating, Panicum, Fall: 70
[12]; [18]
  Plant response rating, Panicum, Fall: 60
[12]; [19]
  Plant response rating, Panicum, Fall: 80
[12]; [20]
  Plant response rating, Panicum, Fall: 75
[12]; [21]
  Plant response rating, Panicum, Fall: 55
[12]; [22]
  Plant response rating, Panicum, Fall: 80
[12]; [23]
  Plant response rating, Panicum, Fall: 90
[13]; [16]
  Plant response rating, Ragweed: 98
[13]; [17]
  Plant response rating, Ragweed: 100
[13]; [18]
  Plant response rating, Ragweed: 95
[13]; [19]
  Plant response rating, Ragweed: 100
[13]; [20]
  Plant response rating, Ragweed: 100
[13]; [21]
  Plant response rating, Ragweed: 90
[13]; [22]
  Plant response rating, Ragweed: 100
[13]; [23]
  Plant response rating, Ragweed: 100
[14]; [16]
  Plant response rating, Sandbur: 30
[14]; [17]
  Plant response rating, Sandbur: 70
[14]; [18]
  Plant response rating, Sandbur: 50
[14]; [19]
  Plant response rating, Sandbur: 80
[14]; [20]
  Plant response rating, Sandbur: 65
[14]; [21]
  Plant response rating, Sandbur: 20
[14]; [22]
  Plant response rating, Sandbur: 60
[14]; [23]
  Plant response rating, Sandbur: 75
[15]; [24]
  Plant response rating, Velvetleaf: 80
[15]; [25]
  Plant response rating, Velvetleaf: 95
[15]; [26]
  Plant response rating, Velvetleaf: 70
[15]; [27]
  Plant response rating, Velvetleaf: 100
